In US7566736B2, “Substituted indoles, compositions containing them, method for the production thereof and their use” (Aventis Pharma S.A., priority 2004, dated 2009) one finds IC50 and melting point data, which are given here for 23 molecules.

pIC50: −log10 of the molar value.

In general, melting point refers to the temperature of the solid-liquid transition.

Data set [1] concerns the target T1, human KDR enzyme (Homo sapiens, UniProt P35968).
T1 construct: The cytoplasmic domain of the human KDR enzyme was cloned in the form of a GST fusion; GST; made in house; host or cells: SF21 insect cells (baculovirus, pFastBac)
Briefly: phosphorylation of substrate by the KDR enzyme in vitro, scintillation technique. It is filed as biochemical. Particulars: read-out: KDR IC 50. The protocol:
The inhibitory effect of the compounds is determined in an assay for phosphorylation of substrate by the KDR enzyme in vitro using a scintillation technique (96-well plate, NEN).
The cytoplasmic domain of the human KDR enzyme was cloned in the form of a GST fusion into the baculovirus expression vector pFastBac. The protein was expressed in SF21 cells and purified to approximately 60% homogeneity.
The kinase activity of KDR is measured in 20 mM MOPS, 10 mM MgCl2, 10 mM MnCl2, 1 mM DTT, 2.5 mM EGTA, 10 mM β-glycerophosphate, pH=7.2, in the presence of 10 mM MgCl2, 100 μM Na3VO4, 1 mM NaF. 10 μl of the compound are added to 70 μl of kinase buffer containing 100 ng of KDR enzyme at 4° C. The reaction is initiated by adding 20 μl of solution containing 2 μg of substrate (SH2-SH3 fragment of PLCγ expressed in the form of a GST fusion protein), 2 μCi γ ^33P[ATP] and 2 μM cold ATP. After incubation at 37° C. for 1 hour, the reaction is stopped by adding 1 volume (100 μl) of 200 mM EDTA. The incubation buffer is removed and the wells are washed three times with 300 μl of PBS. The radioactivity is measured in each well using a Top Count NXT radioactivity counter (Packard).
The background noise is determined by measuring the radioactivity in four different wells containing the radioactive ATP and the substrate alone.
A control for total activity is measured in four different wells containing all the reactants (γ^33P-[ATP], KDR and PLCY substrate) but in the absence of compound.
The inhibition of the KDR activity with the compound of the invention is expressed as percentage inhibition of the control activity determined in the absence of compound.
The compound SU5614 (Calbiochem) (1 μM) is included in each plate as an inhibition control.

Data set [2] has as its target T2, human Tie2 (Homo sapiens, UniProt Q02763).
T2 construct: corresponding to the intracellular domain amino acids 776-1124 was generated by PCR; made in house; host or cells: baculovirus expression vector pFastBacGT
The data set is described as follows: phosphorylation of PLC by Tie2 (GST-Tie2), FlashPlate. It is filed as biochemical. As to conditions: read-out: TIE2 IC 50. The protocol:
The human Tie2 coding sequence corresponding to the intracellular domain amino acids 776-1124 was generated by PCR using the cDNA isolated from human placenta as a model. This sequence was introduced into a baculovirus expression vector pFastBacGT in the form of a GST fusion protein.
The inhibitory effect of the molecules is determined in an assay for phosphorylation of PLC by Tie2 in the presence of GST-Tie2 purified to approximately 80% homogeneity. The substrate is made up of the SH2-SH3 fragments of PLC expressed in the form of a GST fusion protein.
The kinase activity of Tie2 is measured in a 20 mM MOPS buffer, pH 7.2, containing 10 mM MgCl2, 10 mM MnCl2, 1 mM DTT and 10 mM of glycerophosphate. A reaction mixture made up to 70 μl of kinase buffer containing 100 ng of GST-Tie2 enzyme is deposited into each well of a 96-well FlashPlate kept on ice. 10 μl of the test molecule diluted in DMSO at a maximum concentration of 10% are then added. For a given concentration, each measurement is determined in quadruplicate. The reaction is initiated by adding 20 μl of solution containing 2 μg of GST-PLC, 2 μM of cold ATP and 1 μCi of ^33P [ATP]. After incubation at 37° C. for 1 hour, the reaction is stopped by adding 1 volume (100 μl) of 200 mM EDTA. After the incubation buffer has been removed, the wells are washed three times with 300 μl of PBS. The radioactivity is measured on a Wallac MicroBeta 1450.
The inhibition of the Tie2 activity is calculated and expressed as percentage inhibition with respect to the control activity determined in the absence of compound.

T2 sequence (Q02763 776-1124): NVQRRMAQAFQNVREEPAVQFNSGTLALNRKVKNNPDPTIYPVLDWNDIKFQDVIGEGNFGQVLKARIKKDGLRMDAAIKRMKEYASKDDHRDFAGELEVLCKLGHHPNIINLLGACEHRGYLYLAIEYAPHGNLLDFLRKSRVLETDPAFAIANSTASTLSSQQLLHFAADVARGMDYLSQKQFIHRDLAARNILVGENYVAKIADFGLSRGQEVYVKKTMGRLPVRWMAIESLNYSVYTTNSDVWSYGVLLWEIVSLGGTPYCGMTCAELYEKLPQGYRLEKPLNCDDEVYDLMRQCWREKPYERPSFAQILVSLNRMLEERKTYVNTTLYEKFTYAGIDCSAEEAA
T1 sequence (P35968 786-1356 limits assumed): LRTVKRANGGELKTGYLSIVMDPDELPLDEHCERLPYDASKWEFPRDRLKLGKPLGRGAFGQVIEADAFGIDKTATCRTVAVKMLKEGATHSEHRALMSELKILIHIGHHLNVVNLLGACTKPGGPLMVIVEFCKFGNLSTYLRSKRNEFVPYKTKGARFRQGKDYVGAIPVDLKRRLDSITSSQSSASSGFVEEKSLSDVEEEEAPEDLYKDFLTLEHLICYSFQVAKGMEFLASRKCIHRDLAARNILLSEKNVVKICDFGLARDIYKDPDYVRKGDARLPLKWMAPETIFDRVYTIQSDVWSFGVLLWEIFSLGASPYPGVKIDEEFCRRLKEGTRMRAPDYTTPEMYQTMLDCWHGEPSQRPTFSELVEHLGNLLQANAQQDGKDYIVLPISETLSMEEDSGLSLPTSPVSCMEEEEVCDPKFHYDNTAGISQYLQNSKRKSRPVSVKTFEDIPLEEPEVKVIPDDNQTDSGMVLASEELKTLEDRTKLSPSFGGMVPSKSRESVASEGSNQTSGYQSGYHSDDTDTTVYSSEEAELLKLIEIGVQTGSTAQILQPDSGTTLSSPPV

In the case of `NC(=O)c1[nH]c2ccccc2c1-c1ccc(NC(=O)Nc2cc(C(F)(F)F)ccc2F)cc1` [Example 1, 3-{4-[3-(2-Fluoro-5-trifluoromethylphenyl)-ureido]phenyl}-1H-indole-2-carboxamide], the melting point was 240 to 242 °C. For the same molecule, the pIC50 in data set [1] was 7.46. Moreover, the pIC50 in data set [2] is 8.52.

The molecule `NC(=O)c1[nH]c2cccnc2c1-c1ccc(NC(=O)Nc2cc(C(F)(F)F)ccc2F)cc1` [Example 2, 3-{4-[3-(2-Fluoro-5-trifluoromethylphenyl)-ureido]phenyl}-1H-pyrrolo[3,2-b]pyridine-2-carboxamide] came in with a melting point of 206 to 208 °C. Besides, in data set [1], the pIC50 was 7.92. Also, the pIC50 in data set [2] is 8.40.

Molecule `NC(=O)c1[nH]c2ccccc2c1-c1ccc(NC(=O)Nc2ccccc2)cc1` [Example 3, 3-[4-(3-Phenylureido)phenyl]-1H-indole-2-carboxamide] came in with a melting point of 232 to 234 °C. The pIC50 in data set [1] was 5.82. For the same molecule, in data set [2], the pIC50 is 6.53.

The molecule `Cc1cccc(NC(=O)Nc2ccc(-c3c(C(N)=O)[nH]c4ccccc34)cc2)c1` [Example 4, 3-[4-(3-m-Tolylureido)phenyl]-1H-indole-2-carboxamide] registered a melting point of 140 to 142 °C. Further, in data set [1], the pIC50 was 6.74. Moreover, the pIC50 in data set [2] was 7.72.

`NC(=O)c1[nH]c2ccccc2c1-c1ccc(NC(=O)Nc2cccc(C(F)(F)F)c2)cc1` [Example 5, 3-[4-(3-Trifluoromethylphenylureido)phenyl]-1H-indole-2-carboxamide]: the melting point was in the range of 156 to 158 °C. Also, the pIC50 in data set [1] was 7.30. Besides, in data set [2], the pIC50 is 8.22.

As for `Cc1cc(C)cc(NC(=O)Nc2ccc(-c3c(C(N)=O)[nH]c4ccccc34)cc2)c1` [Example 6, 3-[4-(3,5-Dimethylphenylureido)phenyl]-1H-indole-2-carboxamide], the melting point was 168 to 170 °C. Also, the pIC50 in data set [1] is 7.33. Moreover, the pIC50 in data set [2] is 7.80.

`NC(=O)c1[nH]c2ccccc2c1-c1ccc(NC(=O)Nc2ccccc2F)cc1` [Example 7, 3-[4-(2-Fluorophenylureido)phenyl]-1H-indole-2-carboxamide] returned a melting point of 146 to 148 °C. Moreover, the pIC50 in data set [1] was 5.76. Also, in data set [2], the pIC50 is 6.85.

`Cn1c(C(N)=O)c(-c2ccc(NC(=O)Nc3cc(C(F)(F)F)ccc3F)cc2)c2ccccc21` [Example 8, 3-{4-[3-(2-Fluoro-5-trifluoromethylphenyl)-ureido]phenyl}-1-methyl-1H-indole-2-carboxamide] yielded a melting point of more than 260 °C. The pIC50 in data set [1] is 6.59. The pIC50 in data set [2] was 7.57.

In turn, `NC(=O)c1[nH]c2ccccc2c1-c1ccc(NC(=O)Nc2ccc(C(F)(F)F)c(Cl)c2)cc1` [Example 9, 3-{4-[3-(3-Chloro-4-trifluoromethylphenyl)-ureido]phenyl}-1H-indole-2-carboxamide] yielded a melting point of 168 to 170 °C. Further, the pIC50 in data set [1] was 6.86. Moreover, the pIC50 in data set [2] was 7.77.

The molecule `COc1ccc(C(F)(F)F)cc1NC(=O)Nc1ccc(-c2c(C(N)=O)[nH]c3ccccc23)cc1` [Example 12, 3-{4-[3-(2-Methoxy-5-trifluoromethylphenyl)ureido]phenyl}-1H-indole-2-carboxamide] gave a melting point of 178 to 180 °C.

Molecule `NC(=O)c1[nH]c2ccccc2c1-c1ccc(NS(=O)(=O)c2cc(C(F)(F)F)ccc2F)cc1` [Example 13, 3-[4-(2-Fluoro-5-trifluoromethylbenzenesulfonylamino)phenyl]-1H-indole-2-carboxamide] gave a melting point of 176 to 178 °C.

As to `NC(=O)c1[nH]c2ccccc2c1-c1ccc(NS(=O)(=O)c2cccc(Cl)c2Cl)cc1` [Example 14, 3-[4-(2,3-Dichlorobenzenesulfonylamino)-phenyl]-1H-indole-2-carboxamide], the melting point is more than 260 °C.

As for `Cc1ccc(-n2nc(C(C)(C)C)cc2NC(=O)Nc2ccc(-c3c(C(N)=O)[nH]c4ccccc34)cc2)cc1` [Example 15, 3-{4-[3-(5-tert-Butyl-2-p-tolyl-2H-pyrazol-3-yl)ureido]phenyl}-1H-indole-2-carboxamide], the melting point is more than 260 °C.

In turn, `Cc1ccc(F)c(NC(=O)Nc2ccc(-c3c(C(N)=O)[nH]c4ccccc34)cc2)c1` [Example 16] gave a melting point of 220 °C.

`NC(=O)c1[nH]c2ccccc2c1-c1ccc(NC(=O)Nc2cc(C(F)(F)F)ccc2CN2CCCC2)cc1` [Example 19, 3-{4-[3-(2-Pyrrolidin-1-ylmethyl-5-trifluoromethylphenyl)ureido]phenyl}-1H-indole-2-carboxamide]: the pIC50 in data set [1] is 5.72; in data set [2] it was 6.66.

As to `COCc1ccc(C(F)(F)F)cc1NC(=O)Nc1ccc(-c2c(C(N)=O)[nH]c3ccccc23)cc1` [Example 20, 3-{4-[3-(2-Methoxymethyl-5-trifluoromethylphenyl)ureido]phenyl}-1H-indole-2-carboxamide], the pIC50 in data set [1] is 6.63; in data set [2], 7.23.

For the molecule `NC(=O)c1[nH]c2ccc[n+]([O-])c2c1-c1ccc(NC(=O)Nc2cc(C(F)(F)F)ccc2F)cc1` [Example 21, 3-{4-[3-(2-Fluoro-5-trifluoromethylphenyl)-ureido]phenyl}-4-oxy-1H-pyrrolo[3,2-b]pyridine-2-carboxamide], the pIC50 is 6.71 in data set [1] and 7.49 in data set [2].

For the molecule `COCCOc1ccc2c(-c3ccc(NC(=O)Nc4cc(C(F)(F)F)ccc4F)cc3)c(C(N)=O)[nH]c2c1` [Example 23, 3-{4-[3-(2-Fluoro-5-trifluoromethylphenyl)-ureido]phenyl}-6-(2-methoxyethoxy)-1H-indole-2-carboxamide], the pIC50 is 7.05 in data set [1] and 8.15 in data set [2].

In the case of `NC(=O)c1[nH]c2c(N)cccc2c1-c1ccc(NC(=O)Nc2cc(C(F)(F)F)ccc2F)cc1` [Example 30, 7-Amino-3-{4-[3-(2-fluoro-5-trifluoromethylphenyl)ureido]phenyl}-1H-indole-2-carboxamide], the pIC50 in data set [1] is 7.51; in data set [2], 8.15.

As to `NC(=O)c1[nH]c2c(NCCO)cccc2c1-c1ccc(NC(=O)Nc2cc(C(F)(F)F)ccc2F)cc1` [Example 31, 3-{4-[3-(2-Fluoro-5-trifluoromethylphenyl)-ureido]phenyl}-7-(2-hydroxyethylamino)-1H-indole-2-carboxamide], the pIC50 was 7.12 in data set [1] and 8.22 in data set [2].

For `CN(C)CC(=O)Nc1cccc2c(-c3ccc(NC(=O)Nc4cc(C(F)(F)F)ccc4F)cc3)c(C(N)=O)[nH]c12` [Example 32, 7-(2-Dimethylaminoacetylamino)-3-{4-[3-(2-fluoro-5-trifluoromethylphenyl)ureido]phenyl}-1H-indole-2-carboxamide], the pIC50 in data set [1] is 6.84; in data set [2], 7.55.

As to `NC(=O)c1[nH]c2ccccc2c1-c1ccc(NC(=O)Nc2ccc(OC(F)F)cc2)cc1` [Example 37, 3-{4-[3-(4-Difluoromethoxy-phenyl)ureido]phenyl}-1H-indole-2-carboxamide], the pIC50 in data set [1] was 6.70; in data set [2] it was 6.54.

As for `CC(C)c1ccc(NC(=O)Nc2ccc(-c3c(C(N)=O)[nH]c4ccccc34)cc2)cc1` [Example 53, 3-{4-[3-(4-Isopropyl-phenyl)ureido]phenyl}-1H-indole-2-carboxamide], the pIC50 in data set [1] and in data set [2] was 6.82 throughout.
